# Measurements: US9302999B2, “Substituted triazoles as herbicides” (E. I. DU PONT DE NEMOURS AND COMPANY, priority 2012, dated 2016)
# Legend:
# Format in all cases: in vivo
# [1] = tested on: cocklebur (common cocklebur, Xanthium strumarium); assay: Test C pre-/postemergence: cocklebur; details: Preemergence
# Procedure, shortened: (§1)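 Visual injury scored 0–100 (100 = complete control) against untreated controls after 13–15 greenhouse days. Surfactant-containing solvent formulations applied either to soil after sowing (loam/sand) or over 1- to 4-leaf plants, 2–18 cm tall.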
# [2] = tested on: lambsquarters (Chenopodium album); assay: Test C pre-/postemergence: lambsquarters
# Procedure, shortened: as §1
# [3] = tested on: sedge, umbrella (small-flower umbrella sedge Cyperus difformis); assay: Test B flooded paddy: sedge, umbrella; details: Flood; 250 g ai/ha; applied to paddy water at 2-leaf stage; visually evaluated after 13 to 15 days
# Procedure, shortened: (§2)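 Two-leaf-stage plants, pots flooded (3 cm above soil) and treated through the water, which stayed at that depth. After 13–15 days in greenhouse conditions, visual assessment versus controls: 0 is no effect, 100 complete control, dash means no result.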
# [4] = tested on: winter wheat (Triticum aestivum); assay: Test C pre-/postemergence: winter wheat
# Procedure, shortened: as §1
# [5] = tested on: canarygrass (Phalaris minor); assay: Test C postemergence: canarygrass
# Procedure, shortened: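 Plants at the 1- to 4-leaf stage (2 to 18 cm tall), grown in pots of peat moss/vermiculite planting medium, received postemergence applications of the formulated test chemicals. After 13 to 15 days in a greenhouse, injury was scored visually versus controls from 0 (no effect) to 100 (complete control).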
# [6] = tested on: common (oilseed) sunflower (Helianthus annuus); assay: Test C pre-/postemergence: sunflower; details: Preemergence
# Procedure, shortened: as §1
# [7] = tested on: morningglory (Ipomoea coccinea); assay: Test C pre-/postemergence: morningglory
# Procedure, shortened: as §1
# [8] = tested on: nightshade (eastern black nightshade, Solanum ptycanthum); assay: Test C pre-/postemergence: nightshade; details: Preemergence
# Procedure, shortened: as §1
# [9] = tested on: rice (Oryza sativa); assay: Test B flooded paddy: rice; details: Flood; 250 g ai/ha; applied to paddy water at 2-leaf stage; visually evaluated after 13 to 15 days
# Procedure, shortened: as §2
# [10] = tested on: velvetleaf (Abutilon theophrasti); assay: Test C pre-/postemergence: velvetleaf
# Procedure, shortened: as §1
# [11] = tested on: galium (catchweed bedstraw, Galium aparine); assay: Test C pre-/postemergence: galium
# Procedure, shortened: as §1
# [12] = tested on: corn (Zea mays); assay: Test C pre-/postemergence: corn
# Procedure, shortened: as §1
# [13] = 62 g ai/ha, scale of 0 to 100, 0 is no effect, 100 is complete control
# [14] = 125 g ai/ha, scale 0 to 100, 0 no effect, 100 complete control
# [15] = 250 g ai/ha, scale 0 to 100, 0 no effect, 100 complete control
# [16] = Postemergence, 31 g ai/ha, scale 0 to 100 (0 no effect, 100 complete control)
# [17] = Postemergence, 62 g ai/ha, scale 0 to 100 (0 no effect, 100 complete control)
# [18] = Postemergence, 125 g ai/ha, scale 0 to 100, 0 no effect, 100 complete control
# [19] = Postemergence, 250 g ai/ha, scale 0 to 100
# [20] = Preemergence, 31 g ai/ha, scale of 0 to 100, 0 is no effect, 100 is complete control
# [21] = Preemergence, 62 g ai/ha, scale of 0 to 100, 0 is no effect, 100 is complete control
# [22] = Preemergence, 125 g ai/ha, scale 0 to 100, 0 no effect, 100 complete control
# [23] = Preemergence, 250 g ai/ha, scale 0 to 100, 0 no effect, 100 complete control
compound,measurement,setting,value
COc1nn(-c2cccc(F)c2)nc1Cc1ccnc(C(F)(F)F)c1 [Compound 139],"Plant response rating, Cocklebur",[1]; [13],0
same,"Plant response rating, Cocklebur",[1]; [14],0
same,"Plant response rating, Cocklebur",[1]; [15],5
same,"Plant response rating, Lambsquarters",[2]; [16],90
same,"Plant response rating, Lambsquarters",[2]; [17],95
same,"Plant response rating, Lambsquarters",[2]; [18],95
same,"Plant response rating, Lambsquarters",[2]; [19],98
same,"Plant response rating, Lambsquarters",[2]; [20],60
same,"Plant response rating, Lambsquarters",[2]; [21],70
same,"Plant response rating, Lambsquarters",[2]; [22],85
same,"Plant response rating, Lambsquarters",[2]; [23],90
same,"Plant response rating, Sedge, Umbrella (0 to 100 scale, 0 is no effect, 100 is complete control)",[3],80
same,"Plant response rating, Wheat",[4]; [16],10
same,"Plant response rating, Wheat",[4]; [17],10
same,"Plant response rating, Wheat",[4]; [18],40
same,"Plant response rating, Wheat",[4]; [19],40
same,"Plant response rating, Wheat",[4]; [21],0
same,"Plant response rating, Wheat",[4]; [22],10
same,"Plant response rating, Wheat",[4]; [23],20
same,"Plant response rating, Canarygrass","[5]; 31 g ai/ha, scale 0 to 100 (0 no effect, 100 complete control)",40
same,"Plant response rating, Canarygrass","[5]; 62 g ai/ha, scale 0 to 100 (0 no effect, 100 complete control)",45
same,"Plant response rating, Canarygrass",[5]; [14],60
same,"Plant response rating, Canarygrass","[5]; 250 g ai/ha, scale 0 to 100",80
same,"Plant response rating, Sunflower","[6]; 31 g ai/ha, scale of 0 to 100, 0 is no effect, 100 is complete control",0
same,"Plant response rating, Sunflower",[6]; [13],0
same,"Plant response rating, Sunflower",[6]; [14],5
same,"Plant response rating, Sunflower",[6]; [15],10
same,"Plant response rating, Morningglory",[7]; [16],55
same,"Plant response rating, Morningglory",[7]; [17],60
same,"Plant response rating, Morningglory",[7]; [18],60
same,"Plant response rating, Morningglory",[7]; [19],70
same,"Plant response rating, Morningglory",[7]; [20],15
same,"Plant response rating, Morningglory",[7]; [21],15
same,"Plant response rating, Morningglory",[7]; [22],35
same,"Plant response rating, Morningglory",[7]; [23],55
same,"Plant response rating, Nightshade",[8]; [13],75
same,"Plant response rating, Nightshade",[8]; [14],85
same,"Plant response rating, Nightshade",[8]; [15],98
same,"Plant response rating, Rice (0 to 100 scale, 0 is no effect, 100 is complete control)",[9],45
same,"Plant response rating, Velvetleaf",[10]; [16],20
same,"Plant response rating, Velvetleaf",[10]; [17],35
same,"Plant response rating, Velvetleaf",[10]; [18],70
same,"Plant response rating, Velvetleaf",[10]; [19],75
same,"Plant response rating, Velvetleaf",[10]; [20],0
same,"Plant response rating, Velvetleaf",[10]; [21],10
same,"Plant response rating, Velvetleaf",[10]; [22],40
same,"Plant response rating, Velvetleaf",[10]; [23],40
same,"Plant response rating, Galium",[11]; [16],60
same,"Plant response rating, Galium",[11]; [17],70
same,"Plant response rating, Galium",[11]; [18],80
same,"Plant response rating, Galium",[11]; [19],80
same,"Plant response rating, Galium",[11]; [20],5
same,"Plant response rating, Galium",[11]; [21],80
same,"Plant response rating, Galium",[11]; [22],85
same,"Plant response rating, Galium",[11]; [23],95
same,"Plant response rating, Corn",[12]; [17],25
same,"Plant response rating, Corn",[12]; [18],55
same,"Plant response rating, Corn",[12]; [19],60
same,"Plant response rating, Corn",[12]; [20],0
same,"Plant response rating, Corn",[12]; [21],0
same,"Plant response rating, Corn",[12]; [22],10
same,"Plant response rating, Corn",[12]; [23],30
